This data set concerns CCRIS mutagenicity, Ames/micronucleus/aberration tests. Nature of the data set: CCRIS mutagenicity studies.
Setting [1] is: Test System: AMES SALMONELLA TYPHIMURIUM, Strain/Indicator: TA98, Metabolic Activation: HAMSTER, LIVER, S-9, AROCLOR 1254 (10%), Method: PREINCUBATION
The mark [2] stands for this setting: Test System: AMES SALMONELLA TYPHIMURIUM, Strain/Indicator: TA98, Metabolic Activation: NONE, Method: PREINCUBATION
[3] abbreviates: Test System: AMES SALMONELLA TYPHIMURIUM, Strain/Indicator: TA98, Metabolic Activation: RAT, LIVER, S-9, AROCLOR 1254 (10%), Method: PREINCUBATION
[4] abbreviates: Test System: AMES SALMONELLA TYPHIMURIUM, Strain/Indicator: TA100, Metabolic Activation: HAMSTER, LIVER, S-9, AROCLOR 1254 (10%), Method: PREINCUBATION
[5] abbreviates: Test System: AMES SALMONELLA TYPHIMURIUM, Strain/Indicator: TA100, Metabolic Activation: NONE, Method: PREINCUBATION
[6] abbreviates: Test System: AMES SALMONELLA TYPHIMURIUM, Strain/Indicator: TA100, Metabolic Activation: RAT, LIVER, S-9, AROCLOR 1254 (10%), Method: PREINCUBATION
The mark [7] stands for this setting: Test System: AMES SALMONELLA TYPHIMURIUM, Strain/Indicator: TA1535, Metabolic Activation: HAMSTER, LIVER, S-9, AROCLOR 1254 (10%), Method: PREINCUBATION
The mark [8] stands for this setting: Test System: AMES SALMONELLA TYPHIMURIUM, Strain/Indicator: TA1535, Metabolic Activation: NONE, Method: PREINCUBATION
The mark [9] stands for this setting: Test System: AMES SALMONELLA TYPHIMURIUM, Strain/Indicator: TA1535, Metabolic Activation: RAT, LIVER, S-9, AROCLOR 1254 (10%), Method: PREINCUBATION
The mark [10] stands for this setting: Test System: AMES SALMONELLA TYPHIMURIUM, Strain/Indicator: TA1537, Metabolic Activation: NONE, Method: PREINCUBATION
[11] abbreviates: Test System: AMES SALMONELLA TYPHIMURIUM, Strain/Indicator: TA100, Metabolic Activation: NONE, Method: STANDARD PLATE.
Where [12] appears, read: Test System: AMES SALMONELLA TYPHIMURIUM, Strain/Indicator: TA100, Metabolic Activation: RAT, LIVER, S-9, AROCLOR 1254, Method: STANDARD PLATE.
Setting [13] is: Test System: AMES SALMONELLA TYPHIMURIUM, Strain/Indicator: TA1537, Metabolic Activation: NONE, Method: STANDARD PLATE.
The mark [14] stands for this setting: Test System: AMES SALMONELLA TYPHIMURIUM, Strain/Indicator: TA98, Metabolic Activation: NONE, Method: STANDARD PLATE.

The source made the active and inactive calls. The rule behind the calls is not given here.

Take `Nc1cc(Cl)ccc1O`: the mutagenic call by setting is: (End Point: In vitro chromosomal aberrations, Test System: Chinese hamster lung (CHL/IU) cells, Metabolic Activation: Rat, Liver, S9, Phenobarbital and 5,6-benzoflavone) “active; positive (structural changes and ploidy). structural changes not dose related”; (Test System: AMES SALMONELLA TYPHIMURIUM, Strain/Indicator: TA97, Metabolic Activation: HAMSTER, LIVER, S-9, AROCLOR 1254 (10%), Method: PREINCUBATION) “inactive; negative”; (Test System: AMES SALMONELLA TYPHIMURIUM, Strain/Indicator: TA97, Metabolic Activation: HAMSTER, LIVER, S-9, AROCLOR 1254 (30%), Method: PREINCUBATION) “inactive; negative”; (Test System: AMES SALMONELLA TYPHIMURIUM, Strain/Indicator: TA97, Metabolic Activation: NONE, Method: PREINCUBATION) “inactive; negative”; (Test System: AMES SALMONELLA TYPHIMURIUM, Strain/Indicator: TA97, Metabolic Activation: RAT, LIVER, S-9, AROCLOR 1254 (10%), Method: PREINCUBATION) “inactive; negative”; (Test System: AMES SALMONELLA TYPHIMURIUM, Strain/Indicator: TA97, Metabolic Activation: RAT, LIVER, S-9, AROCLOR 1254 (30%), Method: PREINCUBATION) “inactive; negative”. In addition, the mutagenic call was “inactive; negative” under setting [1]; “inactive; negative” under setting [2]; “inactive; negative” under setting [3]; “inactive; negative” (Test System: AMES SALMONELLA TYPHIMURIUM, Strain/Indicator: TA98, Metabolic Activation: RAT, LIVER, S-9, PHENOBARBITAL AND BETA-NAPHTHOFLAVONE, Method: PREINCUBATION); “inactive; negative” under setting [4]; “inactive; negative” under setting [5]. Further, the mutagenic call under setting [6] was “inactive; negative”; the mutagenic call (Test System: AMES SALMONELLA TYPHIMURIUM, Strain/Indicator: TA1535, Metabolic Activation: HAMSTER, LIVER, S-9, AROCLOR 1254 (5%), Method: PREINCUBATION) is “active; positive”; the mutagenic call under setting [7] is “active; positive”; the mutagenic call (Test System: AMES SALMONELLA TYPHIMURIUM, Strain/Indicator: TA1535, Metabolic Activation: HAMSTER, LIVER, S-9, AROCLOR 1254 (30%), Method: PREINCUBATION) is “active; positive”; the mutagenic call under setting [8] is “inactive; negative”; the mutagenic call (Test System: AMES SALMONELLA TYPHIMURIUM, Strain/Indicator: TA1535, Metabolic Activation: RAT, LIVER, S-9, AROCLOR 1254 (5%), Method: PREINCUBATION) is “active; positive”. Besides, the mutagenic call is “active; positive” under setting [9]; “inactive; negative” (Test System: AMES SALMONELLA TYPHIMURIUM, Strain/Indicator: TA1535, Metabolic Activation: RAT, LIVER, S-9, AROCLOR 1254 (30%), Method: PREINCUBATION); “inactive; negative” (Test System: AMES SALMONELLA TYPHIMURIUM, Strain/Indicator: TA1535, Metabolic Activation: RAT, LIVER, S-9, PHENOBARBITAL AND BETA-NAPHTHOFLAVONE, Method: PREINCUBATION); “inactive; negative” under setting [10]; “inactive; negative” (Test System: E. COLI, Strain/Indicator: WP2UVRA, Metabolic Activation: NONE, Method: PREINCUBATION); “inactive; negative” (Test System: E. COLI, Strain/Indicator: WP2UVRA, Metabolic Activation: RAT, LIVER, S-9, PHENOBARBITAL AND BETA-NAPHTHOFLAVONE, Method: PREINCUBATION).
In the case of `O=C1c2ccc(O)c(O)c2C(=O)c2c(O)ccc(O)c21`, the mutagenic call is “inactive; negative” (Test System: AMES SALMONELLA TYPHIMURIUM, Strain/Indicator: TA98, Metabolic Activation: RAT, LIVER, S-9, AROCLOR 1254, Method: STANDARD PLATE); “inactive; negative” under setting [11]; “inactive; negative” under setting [12]; “inactive; negative” (Test System: AMES SALMONELLA TYPHIMURIUM, Strain/Indicator: TA1535, Metabolic Activation: NONE, Method: STANDARD PLATE); “inactive; negative” (Test System: AMES SALMONELLA TYPHIMURIUM, Strain/Indicator: TA1535, Metabolic Activation: RAT, LIVER, S-9, AROCLOR 1254, Method: STANDARD PLATE); “active; positive” under setting [13]. For the same compound, the mutagenic call is “active; positive” (Test System: AMES SALMONELLA TYPHIMURIUM, Strain/Indicator: TA1537, Metabolic Activation: RAT, LIVER, S-9, AROCLOR 1254, Method: STANDARD PLATE) and “inactive; negative” (Test System: AMES SALMONELLA TYPHIMURIUM, Strain/Indicator: TA1538, Metabolic Activation: RAT, LIVER, S-9, AROCLOR 1254, Method: STANDARD PLATE).
For `Cc1cc(O)c2c(c1)C(=O)c1c(O)c(O)cc(O)c1C2=O`, the mutagenic call is, setting by setting: under setting [13], “inactive; negative”; (Test System: AMES SALMONELLA TYPHIMURIUM, Strain/Indicator: TA1537, Metabolic Activation: RAT, LIVER, S-9, PCB, Method: STANDARD PLATE) “active; positive”.
As to `CC1=CC(C)(C)Nc2ccccc21`, the mutagenic call reads like this: under setting [1], “inactive; negative”; under setting [2], “inactive; negative”; under setting [14], “inactive; negative”; under setting [3], “inactive; negative”; (Test System: AMES SALMONELLA TYPHIMURIUM, Strain/Indicator: TA98, Metabolic Activation: S-9, Method: STANDARD PLATE) “inactive; negative”; under setting [4], “inactive; negative”. Also, the mutagenic call under setting [5] is “inactive; negative”; the mutagenic call under setting [11] is “inactive; negative”; the mutagenic call under setting [6] is “inactive; negative”; the mutagenic call (Test System: AMES SALMONELLA TYPHIMURIUM, Strain/Indicator: TA100, Metabolic Activation: S-9, Method: STANDARD PLATE) is “inactive; negative”; the mutagenic call under setting [7] was “inactive; negative”; the mutagenic call under setting [8] is “inactive; negative”. Further, the mutagenic call by setting is: under setting [9], “inactive; negative”; (Test System: AMES SALMONELLA TYPHIMURIUM, Strain/Indicator: TA1537, Metabolic Activation: HAMSTER, LIVER, S-9, AROCLOR 1254 (10%), Method: PREINCUBATION) “inactive; negative”; under setting [10], “inactive; negative”; (Test System: AMES SALMONELLA TYPHIMURIUM, Strain/Indicator: TA1537, Metabolic Activation: RAT, LIVER, S-9, AROCLOR 1254 (10%), Method: PREINCUBATION) “inactive; negative”.
Consider `CC1=CC(=O)c2c(O)c3c(c(O)c2C1=O)C1C(O)C(C3=O)C23C(=O)c4c(O)c(C)cc(O)c4C(O)=C2C(=O)CC(O)C13` (stereo not given), for which the mutagenic call (Test System: UDS RODENT HEPATOCYTES, Strain/Indicator: THY INCORP, Metabolic Activation: NONE, Method: AUTORADIOGRAPHY) is “inactive; negative”.
In the case of `CC(=O)O[C@H]1C[C@@H]2[C@@]3(C)CCCC(C)(C)[C@@H]3CC[C@@]2(C)[C@@H]2CC=C(C=O)[C@H](C=O)[C@@]12C`, the mutagenic call runs as follows: under setting [14], “inactive; negative”; under setting [11], “inactive; negative”; (Test System: AMES SALMONELLA TYPHIMURIUM, Strain/Indicator: TA2637, Metabolic Activation: NONE, Method: STANDARD PLATE) “inactive; negative”.
As for `Cc1ccc2c(ccc3[nH]c4ccc5ccccc5c4c32)c1`, under setting [12], the mutagenic call is “active; positive”.

Values taken from PubChem BioAssay AID1259407 (Chemical Carcinogenesis Research Information System (CCRIS), 2018).
